For two compounds, Activity and inhibition results are on record in ChEMBL document CHEMBL5678818, “Discovery of potent SOS1 inhibitors that block RAS activation via disruption of the RAS-SOS1 interaction” (Proc Natl Acad Sci U S A, 2019).

Assay [1] addresses Beta-adrenergic receptor kinase 1 (Homo sapiens) (UniProt P25098). Nature of the assay: Inhibition of GRK2 (unknown origin) assessed as residual activity at 1000 nM by KINOMEscan analysis relative to control.
Assay [2] has as its system Mast/stem cell growth factor receptor Kit (Homo sapiens), P10721 [D816V]. Nature of the assay: Inhibition of KIT D816V mutant (unknown origin) assessed as residual activity at 100 nM by KINOMEscan analysis relative to control.
Assay [3] has as its system Epidermal growth factor receptor (Homo sapiens), P00533 [UNDEFINED MUTATION]. Nature of the assay: Inhibition of EGFR L747-E749del/A750P mutant (unknown origin) assessed as residual activity at 100 nM by KINOMEscan analysis relative to control.
The target in assay [4] is Vascular endothelial growth factor receptor 3 (Homo sapiens) (UniProt P35916). Nature of the assay: Inhibition of FLT4 (unknown origin) assessed as residual activity at 100 nM by KINOMEscan analysis relative to control.
Assay [5] has as its target MAP/microtubule affinity-regulating kinase 3 (Homo sapiens) (UniProt P27448). Nature of the assay: Inhibition of MARK3 (unknown origin) assessed as residual activity at 100 nM by KINOMEscan analysis relative to control.
For assay [6], the target named is Cyclin-dependent kinase-like 1 (Homo sapiens) (UniProt Q00532). Briefly: Inhibition of CDKL1 (unknown origin) assessed as residual activity at 100 nM by KINOMEscan analysis relative to control.
Sequence of Cyclin-dependent kinase-like 1 (Homo sapiens) (Q00532 whole entry): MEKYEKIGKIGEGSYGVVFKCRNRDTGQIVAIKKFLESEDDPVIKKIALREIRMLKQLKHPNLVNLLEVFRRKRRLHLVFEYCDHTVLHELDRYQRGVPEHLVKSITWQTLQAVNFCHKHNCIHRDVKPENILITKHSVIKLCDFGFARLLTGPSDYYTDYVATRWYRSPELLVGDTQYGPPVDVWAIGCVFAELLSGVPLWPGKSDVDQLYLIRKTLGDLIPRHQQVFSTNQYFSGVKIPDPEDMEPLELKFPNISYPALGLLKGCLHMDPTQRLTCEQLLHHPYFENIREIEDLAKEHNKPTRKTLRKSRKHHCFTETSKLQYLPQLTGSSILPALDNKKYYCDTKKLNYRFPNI
Assay [7] has as its target Serine/threonine-protein kinase 24 (Homo sapiens) (UniProt Q9Y6E0). Briefly: Inhibition of MST3 (unknown origin) assessed as residual activity at 100 nM by KINOMEscan analysis relative to control.
The target in assay [8] is Receptor tyrosine-protein kinase erbB-4 (Homo sapiens) (UniProt Q15303). Nature of the assay: Inhibition of ERBB4 (unknown origin) assessed as residual activity at 100 nM by KINOMEscan analysis relative to control.
Sequence of Receptor tyrosine-protein kinase erbB-4 (Homo sapiens) (Q15303 whole entry): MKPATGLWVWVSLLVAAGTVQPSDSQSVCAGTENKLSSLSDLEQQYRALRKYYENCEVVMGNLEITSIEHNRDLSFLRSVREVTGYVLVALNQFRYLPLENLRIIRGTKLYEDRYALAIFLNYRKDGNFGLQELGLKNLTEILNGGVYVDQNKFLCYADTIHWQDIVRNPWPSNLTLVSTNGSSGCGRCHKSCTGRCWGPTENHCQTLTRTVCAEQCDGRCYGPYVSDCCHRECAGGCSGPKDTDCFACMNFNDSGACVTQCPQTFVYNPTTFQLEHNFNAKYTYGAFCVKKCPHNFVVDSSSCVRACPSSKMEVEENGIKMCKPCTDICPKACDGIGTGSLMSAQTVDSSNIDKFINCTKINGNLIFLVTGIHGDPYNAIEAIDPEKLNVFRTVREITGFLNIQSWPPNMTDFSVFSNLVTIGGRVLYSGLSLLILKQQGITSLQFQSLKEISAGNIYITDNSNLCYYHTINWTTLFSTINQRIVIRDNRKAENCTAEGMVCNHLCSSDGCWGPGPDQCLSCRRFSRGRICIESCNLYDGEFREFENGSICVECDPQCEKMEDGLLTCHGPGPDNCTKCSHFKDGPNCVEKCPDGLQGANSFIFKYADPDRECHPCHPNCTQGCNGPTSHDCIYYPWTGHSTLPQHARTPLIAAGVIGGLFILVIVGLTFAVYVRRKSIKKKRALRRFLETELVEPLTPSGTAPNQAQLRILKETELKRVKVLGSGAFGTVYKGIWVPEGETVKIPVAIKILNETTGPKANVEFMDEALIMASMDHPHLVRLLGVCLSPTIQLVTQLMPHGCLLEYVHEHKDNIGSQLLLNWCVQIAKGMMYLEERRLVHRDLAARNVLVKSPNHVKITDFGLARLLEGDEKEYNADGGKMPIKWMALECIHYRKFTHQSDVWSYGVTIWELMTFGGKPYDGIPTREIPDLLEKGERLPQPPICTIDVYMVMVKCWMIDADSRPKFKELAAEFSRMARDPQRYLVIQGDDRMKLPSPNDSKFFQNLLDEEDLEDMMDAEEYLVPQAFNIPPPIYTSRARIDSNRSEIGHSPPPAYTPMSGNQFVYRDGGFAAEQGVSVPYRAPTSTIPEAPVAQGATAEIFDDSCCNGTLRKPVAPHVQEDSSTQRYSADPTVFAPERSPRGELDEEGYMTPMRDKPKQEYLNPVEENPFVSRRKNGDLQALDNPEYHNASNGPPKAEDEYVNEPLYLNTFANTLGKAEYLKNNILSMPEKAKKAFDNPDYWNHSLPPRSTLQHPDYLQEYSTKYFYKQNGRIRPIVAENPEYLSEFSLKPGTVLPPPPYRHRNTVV
Assay [9] addresses Tyrosine-protein kinase HCK (Homo sapiens) (UniProt P08631). Briefly: Inhibition of HCK (unknown origin) assessed as residual activity at 100 nM by KINOMEscan analysis relative to control.
Assay [10] has as its target T1, Serine/threonine-protein kinase LATS2 (Homo sapiens) (UniProt Q9NRM7).
T1 sequence (whole entry): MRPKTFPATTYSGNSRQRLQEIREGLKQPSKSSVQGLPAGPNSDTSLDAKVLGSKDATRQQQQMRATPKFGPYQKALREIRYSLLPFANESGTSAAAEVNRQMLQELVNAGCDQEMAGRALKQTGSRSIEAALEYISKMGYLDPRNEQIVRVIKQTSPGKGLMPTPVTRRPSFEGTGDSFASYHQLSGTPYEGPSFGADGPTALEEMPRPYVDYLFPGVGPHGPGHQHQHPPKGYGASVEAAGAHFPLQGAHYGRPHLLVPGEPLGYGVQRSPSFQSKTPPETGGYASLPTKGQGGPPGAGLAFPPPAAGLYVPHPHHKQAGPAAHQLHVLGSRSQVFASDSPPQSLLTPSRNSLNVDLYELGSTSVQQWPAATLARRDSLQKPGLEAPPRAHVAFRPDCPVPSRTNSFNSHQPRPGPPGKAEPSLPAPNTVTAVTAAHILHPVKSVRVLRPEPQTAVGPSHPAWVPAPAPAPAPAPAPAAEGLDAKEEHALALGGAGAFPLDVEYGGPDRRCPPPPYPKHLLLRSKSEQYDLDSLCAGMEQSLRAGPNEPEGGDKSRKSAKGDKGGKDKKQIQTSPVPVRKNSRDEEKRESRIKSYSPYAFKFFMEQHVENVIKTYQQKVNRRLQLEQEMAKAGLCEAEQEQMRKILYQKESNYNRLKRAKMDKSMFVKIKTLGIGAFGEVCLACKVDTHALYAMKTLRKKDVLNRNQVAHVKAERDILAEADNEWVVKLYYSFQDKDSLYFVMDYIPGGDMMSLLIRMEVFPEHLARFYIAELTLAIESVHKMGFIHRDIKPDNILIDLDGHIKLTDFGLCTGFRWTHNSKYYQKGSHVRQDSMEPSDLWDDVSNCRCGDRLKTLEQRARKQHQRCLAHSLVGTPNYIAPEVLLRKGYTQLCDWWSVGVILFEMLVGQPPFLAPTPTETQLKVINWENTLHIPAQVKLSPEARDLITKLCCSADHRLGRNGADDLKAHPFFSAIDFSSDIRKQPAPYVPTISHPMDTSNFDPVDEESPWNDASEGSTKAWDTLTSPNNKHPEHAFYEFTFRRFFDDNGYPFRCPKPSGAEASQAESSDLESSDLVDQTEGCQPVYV
Briefly: Inhibition of LATS2 (unknown origin) assessed as residual activity at 100 nM by KINOMEscan analysis relative to control.

The species named for the next assay is Homo sapiens. Nature of the assay: Inhibition of N-terminal GST-tagged recombinant human SOS1 N879V mutant (564 to 1049 residues) expressed in Escherichia coli assessed as reduction in KRAS G12C mutant activation at 10 uM by HTRF analysis relative to control. (In TR-FRET formats the signal depends on donor and acceptor labels being close together.)
Assay [11] deals with TRAF2 and NCK-interacting protein kinase (Homo sapiens) (UniProt Q9UKE5). Nature of the assay: Inhibition of TNIK (unknown origin) assessed as residual activity at 100 nM by KINOMEscan analysis relative to control.
Sequence of TRAF2 and NCK-interacting protein kinase (Homo sapiens) (Q9UKE5 whole entry, looked up): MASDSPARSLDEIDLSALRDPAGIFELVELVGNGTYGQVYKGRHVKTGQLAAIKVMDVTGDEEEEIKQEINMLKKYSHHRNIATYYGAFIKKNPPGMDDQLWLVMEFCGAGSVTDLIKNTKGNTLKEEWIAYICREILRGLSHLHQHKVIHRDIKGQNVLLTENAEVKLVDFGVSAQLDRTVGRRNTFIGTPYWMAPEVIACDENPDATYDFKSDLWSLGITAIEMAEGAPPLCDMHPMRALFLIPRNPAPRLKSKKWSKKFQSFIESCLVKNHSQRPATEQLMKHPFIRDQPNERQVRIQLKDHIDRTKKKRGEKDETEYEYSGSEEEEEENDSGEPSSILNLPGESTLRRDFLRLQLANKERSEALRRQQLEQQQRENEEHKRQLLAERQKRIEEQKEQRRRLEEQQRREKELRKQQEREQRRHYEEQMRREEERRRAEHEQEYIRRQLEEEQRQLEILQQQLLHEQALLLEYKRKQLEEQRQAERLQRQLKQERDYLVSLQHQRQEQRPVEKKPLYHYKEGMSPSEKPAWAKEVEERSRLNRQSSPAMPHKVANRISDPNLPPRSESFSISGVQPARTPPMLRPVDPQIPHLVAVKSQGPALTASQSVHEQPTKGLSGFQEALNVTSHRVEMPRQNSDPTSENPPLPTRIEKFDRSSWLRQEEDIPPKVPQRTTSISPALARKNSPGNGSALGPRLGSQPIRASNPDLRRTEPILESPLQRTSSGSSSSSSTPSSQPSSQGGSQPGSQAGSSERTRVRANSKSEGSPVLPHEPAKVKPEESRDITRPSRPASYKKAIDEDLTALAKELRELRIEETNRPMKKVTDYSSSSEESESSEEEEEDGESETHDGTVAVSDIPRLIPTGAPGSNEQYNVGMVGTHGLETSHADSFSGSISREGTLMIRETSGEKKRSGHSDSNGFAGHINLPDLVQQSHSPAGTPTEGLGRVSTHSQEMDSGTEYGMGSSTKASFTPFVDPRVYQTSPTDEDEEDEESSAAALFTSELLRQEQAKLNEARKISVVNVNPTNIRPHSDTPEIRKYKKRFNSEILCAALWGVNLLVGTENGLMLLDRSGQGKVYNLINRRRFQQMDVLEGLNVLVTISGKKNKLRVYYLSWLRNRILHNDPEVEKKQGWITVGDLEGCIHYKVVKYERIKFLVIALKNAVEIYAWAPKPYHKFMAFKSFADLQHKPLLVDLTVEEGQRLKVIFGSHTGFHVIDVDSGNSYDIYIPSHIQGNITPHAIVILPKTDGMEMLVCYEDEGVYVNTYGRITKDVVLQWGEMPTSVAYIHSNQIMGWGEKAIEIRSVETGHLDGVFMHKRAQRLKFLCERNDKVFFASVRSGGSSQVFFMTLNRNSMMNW
The target of assay [12] is Ephrin type-A receptor 4 (Homo sapiens) (UniProt P54764). Nature of the assay: Inhibition of EPHA4 (unknown origin) assessed as residual activity at 100 nM by KINOMEscan analysis relative to control.

Sequence of MAP/microtubule affinity-regulating kinase 3 (Homo sapiens) (P27448 whole entry, looked up): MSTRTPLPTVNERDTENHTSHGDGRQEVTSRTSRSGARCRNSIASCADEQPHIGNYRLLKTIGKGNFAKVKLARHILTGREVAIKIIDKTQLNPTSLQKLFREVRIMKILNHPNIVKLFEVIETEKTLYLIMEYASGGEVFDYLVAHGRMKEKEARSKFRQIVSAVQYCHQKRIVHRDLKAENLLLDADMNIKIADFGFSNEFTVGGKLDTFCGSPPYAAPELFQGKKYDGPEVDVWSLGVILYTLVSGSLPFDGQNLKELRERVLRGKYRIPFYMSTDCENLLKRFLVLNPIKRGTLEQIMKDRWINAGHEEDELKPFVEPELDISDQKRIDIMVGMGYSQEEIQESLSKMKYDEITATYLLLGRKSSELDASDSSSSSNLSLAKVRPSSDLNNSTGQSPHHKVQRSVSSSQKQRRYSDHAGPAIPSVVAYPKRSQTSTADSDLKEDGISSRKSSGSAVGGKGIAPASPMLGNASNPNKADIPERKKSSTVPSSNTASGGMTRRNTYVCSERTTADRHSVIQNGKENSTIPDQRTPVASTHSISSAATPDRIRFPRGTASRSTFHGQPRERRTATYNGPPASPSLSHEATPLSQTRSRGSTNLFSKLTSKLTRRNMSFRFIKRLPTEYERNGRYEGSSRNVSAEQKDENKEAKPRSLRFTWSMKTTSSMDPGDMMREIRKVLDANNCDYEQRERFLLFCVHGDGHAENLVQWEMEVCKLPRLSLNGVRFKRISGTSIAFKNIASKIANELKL
Sequence of Beta-adrenergic receptor kinase 1 (Homo sapiens) (P25098 whole entry): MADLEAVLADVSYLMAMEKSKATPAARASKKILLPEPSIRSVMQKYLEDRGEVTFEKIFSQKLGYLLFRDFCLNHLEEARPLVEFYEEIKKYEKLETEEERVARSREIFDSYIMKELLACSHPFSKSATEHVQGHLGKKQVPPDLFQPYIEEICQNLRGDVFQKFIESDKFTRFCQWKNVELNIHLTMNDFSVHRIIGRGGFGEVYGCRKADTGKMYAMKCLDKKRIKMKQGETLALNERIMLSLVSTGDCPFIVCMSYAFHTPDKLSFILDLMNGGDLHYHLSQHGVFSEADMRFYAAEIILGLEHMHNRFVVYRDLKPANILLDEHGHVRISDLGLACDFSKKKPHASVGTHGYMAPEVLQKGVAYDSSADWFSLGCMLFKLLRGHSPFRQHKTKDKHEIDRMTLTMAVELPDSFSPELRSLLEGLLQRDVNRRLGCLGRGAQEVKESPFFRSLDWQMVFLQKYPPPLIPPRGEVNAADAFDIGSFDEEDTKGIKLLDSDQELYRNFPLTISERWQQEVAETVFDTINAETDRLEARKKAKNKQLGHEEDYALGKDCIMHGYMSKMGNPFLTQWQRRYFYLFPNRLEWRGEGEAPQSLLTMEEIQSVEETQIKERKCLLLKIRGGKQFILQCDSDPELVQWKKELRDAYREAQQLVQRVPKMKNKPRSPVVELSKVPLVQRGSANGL
Sequence of Tyrosine-protein kinase HCK (Homo sapiens) (P08631 2-526 limits assumed): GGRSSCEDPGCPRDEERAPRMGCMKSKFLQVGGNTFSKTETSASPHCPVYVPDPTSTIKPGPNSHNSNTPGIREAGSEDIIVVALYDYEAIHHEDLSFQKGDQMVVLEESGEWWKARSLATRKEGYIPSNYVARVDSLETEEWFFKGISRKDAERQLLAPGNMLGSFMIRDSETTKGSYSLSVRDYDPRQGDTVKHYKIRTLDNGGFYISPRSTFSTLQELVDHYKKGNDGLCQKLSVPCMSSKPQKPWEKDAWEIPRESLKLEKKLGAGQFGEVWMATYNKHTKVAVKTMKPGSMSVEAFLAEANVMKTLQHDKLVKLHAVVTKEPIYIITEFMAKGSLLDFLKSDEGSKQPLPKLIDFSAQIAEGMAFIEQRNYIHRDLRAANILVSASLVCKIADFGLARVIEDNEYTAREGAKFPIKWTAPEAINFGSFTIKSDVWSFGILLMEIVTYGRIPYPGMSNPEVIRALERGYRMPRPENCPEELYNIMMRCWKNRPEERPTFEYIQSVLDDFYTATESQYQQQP

Regarding `COc1cc2nc(C)nc(N[C@H](C)c3cccc(-c4cn[nH]c4)c3)c2cc1OC`, the Activity in assay [1] came out at 62%.

As a reminder, the inhibition is the relative decrease from the control value, in per cent. On to `COc1cc2ncnc(N[C@H](C)c3cccc4ccccc34)c2cc1OC`, for which the Activity turned out to be 73% in assay [2]; 92% in [3]; 92% in [4]; 88% in assay [5]; 70% in assay [6]; 99% in assay [7]. The Activity came to 100% in assay [8]; 88% in assay [9]; 87% in [10]; 100% in assay [11]; 86% in assay [12]. The inhibition in the assay listed under Homo sapiens worked out at 51%.
